Ends that are not written are not given here.

The data set in a line: Water solubility at 20° C. and pH 6.5 (turbid appearance, 10 mg peptide in 10 ml de-mineralised water). The data set is classed as physicochemical.
Description: Peptides for use in food products according to the invention are water-insoluble in water at 20° C. and a pH of 6.5. This can for example be evidenced by mixing 10 mg of the peptide into 10 ml of de-mineralised water at 20° C. and pH 6.5, and stirring. A (measurable) turbid appearance of the solution after stirring is indicative of the fact that the peptide is water-insoluble.
As to GSGGSG [GSGGSG], the “Peptide category (water solubility)” value is reported as “Soluble peptides”.

On to DDDDDD [DDDDDD], for which the “Peptide category (water solubility)” value is recorded as “Soluble peptides”. In the case of EAEWEY [EAEWEY], the “Peptide category (water solubility)” value is given as “Soluble peptides”. The result for `C[C@H](N)C(=O)N[C@@H](C)C(=O)N[C@@H](C)C(=O)N[C@@H](C)C(=O)N[C@@H](C)C(=O)N[C@@H](C)C(=O)O` [AAAAAA] reads “Insoluble peptides”; that for VEWEME [VEWEME], “Soluble peptides”; that for LLLLLL [LLLLLL], “Insoluble peptides”. The result for AAAAAAAA [AAAAAAAA] reads “Insoluble peptides”.
